According to patent US9732067B2, “Compounds and methods for activating the apoptotic arm of the unfolded protein response” (University of Kansas, priority 2012, dated 2017):
Like-named read-outs stand apart in the source and are kept apart here.

Tests used:
[1] = test system: PERK-eIF2α-CHOP (apoptotic) arm of the Unfolded Protein Response pathway; assay: UPR-CHOP primary assay (CHO-CHOP luciferase reporter); type: cell-based
Protocol: The purpose of this assay was to detect activators of the PERK-eIF2α-CHOP (apoptotic) arm of the Unfolded Protein Response pathway.
Cells were passaged twice a week. […] Once the cells had reached confluency, old medium was aspirated and the flasks were washed with 20 mL DPBS per T225 flask. Cells were left in DPBS for about 30 seconds. Subsequently, 6.5 mL 0.05% trypsin solution was added into the flask and the flask was rocked gently so that the solution covered the surface. The cells were allowed to detach by incubating at room temperature for about 4 minutes. The flask was washed with […] fresh growth media and the cell suspension was collected in a 50 mL sterile conical tube. The collected cells were centrifuged at 900 rpm for 5 minutes and re-suspended in 1 mL fresh growth media. An additional 19 mL of growth media was added and the tube was mixed gently. The cell suspension was filtered with a cell strainer and the cells were counted.
As above, cells were grown to confluency, washed, and detached with 5 mL trypsin solution for 4 minutes at room temperature. The flask was washed with 25 mL fresh growth media and the cell suspension was collected in a 50 mL sterile conical tube. The cells were centrifuged at 500 rpm for 10 minutes and re-suspended carefully in 1 mL fresh assay medium. An additional 19 mL of assay media was added the cells were mixed gently. The cell suspension was filtered with a cell strainer and the number of cells was counted. Cell density was adjusted to 1.0×10^5 cells/mL in medium.
On day 1, cell suspensions were prepared and 500 cells in 5 μL of assay media were plated in the wells of columns 1-48 of a 1536-well assay plate. The plates were centrifuged at 500 rpm for 1 minute and subsequently incubated at 37° C., 100% relative humidity, 5% CO2 for 16-18 hours.
[…] […] The plates were centrifuged at 1000 rpm for 1 minute and subsequently incubated at 37° C., 100% relative humidity, 5% CO2 for 6 hours.
Following the 6-hour incubation the plate was incubated for 10 minutes at room temperature and 3 μL of STEADY-GLO was added to each well. The plates were centrifuged at 2000 rpm for 2 minutes and subsequently incubated at room temperature for 10 minutes. Luminescence was measured with a luminometer.
The MLPCN library of approximately 330,000 compounds was tested in the UPR-CHOP primary screen utilizing a luciferase-based reporter expressed in a CHO cell line to identify activators of the CHOP apoptotic pathway. […]

MEF with wild-type CHOP = assay: Proliferation / cytotoxicity (ATPLite) in MEF with wild-type CHOP; type: cell-based, mouse
Protocol: Several of the analogs derived from these changes were evaluated in secondary assays as they met the preliminary probe criteria for UPR-CHOP and UPR-XBP1 activity. Select compounds were assessed in a dose response manner for the ability to suppress proliferation in both the CHOP wild-type and CHOP knockout murine embryonic fibroblasts (−/− MEF KO CHOP)(Table 2).
It was determined whether ML291 and ML291 congeners would induce cell death (cytotoxicity as measured by ATPLite®, which measures production of ATP from living cells) in cells where these pathways are operant, but not activate them in the absence of the pathways.

O=C(Nc1ccc(S(=O)(=O)N2CCC(Cl)CC2)cc1)c1ccc([N+](=O)[O-])o1 [ML291, N-(4-((4-chloropiperidin-1-yl)sulfonyl)phenyl)-5-nitrofuran-2-carboxamide]
selectivity (XBP1 over CHOP) [1]: > 108.1 fold | EC50 ([1]; CHO-K1, text, read-out: EC50 in the CHO-K1 cell reporter assays (CHOP)): 762 nM | EC50 ([1]; Cricetulus griseus, Table 1, mean of replicates, AID602434, read-out: UPR CHOP Assay Potency EC50): 740 nM | EC50 ([1]; Cricetulus griseus, read-out: CHOP EC50): 740 nM | Selectivity (XBP1/CHOP) x-fold ([1]; Table 1): >108.1 x-fold | EC50 ([1]; Table 9, average of four runs, F12 HAMs, 10% hi-FBS, read-out: EC50 UPR CHOP Assay): 780 nM | EC50 ([1]; read-out: EC50 in the CHO-K1 cell reporter assays (CHOP)): 760 nM | shift of potency in MEF wild-type CHOP versus CHO-K1 cell reporter assays (MEF with wild-type CHOP): ~6 fold | EC50 (MEF with wild-type CHOP; Mus musculus, Table 2, mean of replicates, EC50 and μM, read-out: Proliferation MEF wt CHOP): 4.77 ± 1.05 µM | IC50 (MEF with wild-type CHOP; Mus musculus, Table 5, MEF, ATPLite): 4770 ± 1050 nM | EC50 (MEF with wild-type CHOP; Mus musculus, read-out: CHOP wild-type EC50 (MEF)): 4.77 µM | EC50 (MEF with wild-type CHOP; read-out: CHOP wild-type EC50 (MEF)): ~4.8 µM
